pIC50: −log10 of the molar value.

The source of these data is patent US20140357655A1, “SPIROINDOLINE DERIVATIVES AS GONADOTROPIN- RELEASING HORMONE RECEPTOR ANTAGONISTS” (Bayer Intellectual Property GmbH, priority 2012, published 2014).

The target in the test is T1, human GnRH receptor (Homo sapiens, UniProt P30968).
T1 sequence (P30968 1-328): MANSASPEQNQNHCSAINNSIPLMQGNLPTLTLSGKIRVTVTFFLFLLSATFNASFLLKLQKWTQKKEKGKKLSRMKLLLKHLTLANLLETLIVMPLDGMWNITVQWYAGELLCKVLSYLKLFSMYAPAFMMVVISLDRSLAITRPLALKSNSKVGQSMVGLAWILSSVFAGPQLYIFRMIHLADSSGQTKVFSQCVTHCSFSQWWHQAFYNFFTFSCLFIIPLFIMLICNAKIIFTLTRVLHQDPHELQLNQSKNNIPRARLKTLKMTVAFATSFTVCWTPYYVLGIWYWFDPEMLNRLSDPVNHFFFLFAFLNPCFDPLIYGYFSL
The experiment in a line: IP-One HTRF assay with buserelin (at EC80) stimulation. Format: cell-based. The settings on record: CHO cells stably expressing human GnRH receptor, read-out: Potency in IP-One HTRF assay, given as IC50. The text has this:
2.3. IP-One HTRF® Assay By using homogenous time-resolved fluorescence resonance energy transfer (HTRF), the generation of one component of the GnRH—R signalling cascade can be measured. After stimulation of CHO cells stably expressing human GnRH receptor (established by Prof. Thomas Gudermann, currently University of Marburg, Germany; supplied as frozen cell aliquots by Cell Culture Services, Hamburg, Germany) with the EC80 of the GnRH agonist buserelin, Gq protein-coupled receptor signalling cascade is activated resulting in PLC-dependent cleavage of PIP2 to Inositol-1,4,5-triphosphate (IP3) and Diacylglycerol. The second messenger IP3 is degraded intracellularly to myo-inositol. Inhibition of the final degradation step from Inositol-1-phosphate (IP1) to myo-inositol by addition of lithium chloride leads to accumulation of IP1 in the cells. In cell lysates, IP1 can be detected via an antibody-based HTRF detection technology, where IP1 can displace the FRET acceptor IP1-d2 from binding by Terbium-labelled anti-IP1 antibody as donor resulting in a signal decrease. Compounds were tested for their capability of inhibiting GnRH—R activation by buserelin. For all IP-One HTRF® assays reagents of Cisbio Bioassays (IP-One Tb Jumbo kit, #62IPAPEJ; Cisbio Bioassays, Bagnols sur Cèze Cedex, France) were used.
For the assay, frozen cell aliquots were thawed and a cell suspension (3.33×10^6 cells/mL) containing IP1-d2 (dilution 1:40) was prepared and incubated at 37° C. After 1 h 3 μl of the cell suspension were added to 50 nl of a 100-fold concentrated solution of the test compound in DMSO pre-dispensed in a well of a white low-volume 384-well microtiter plate (Greiner Bio-One, Frickenhausen, Germany). […] Plates were incubated for 1 h at 37° C. and 5% carbon dioxide before the cells were lysed by adding 3 μl Terbium-labelled anti-IP1 antibody (1:40) diluted in Conjugate & Lysis buffer as supplied with the kit. After an incubation for 1 h at 22° C. to enable complete cell lysis and antibody binding to free IP1 or IP1-d2, plates were measured in an HTRF reader, e.g. a RUBYstar, PHERAstar (both BMG Labtechnologies, Offenburg, Germany) or a Viewlux (PerkinElmer LAS, Rodgau-Jügesheim, Germany).
From the fluorescence emissions at 665 nm (FRET) and at 620 nm (background signal of Terbium-antibody), the ratio (emission at 665 nm divided by emission at 620 nm) was calculated and the data were normalized (reaction without test compound=0% inhibition; all other assay components except agonist=100% inhibition). On the same microtiter plate, compounds were tested at 10 different concentrations in the range of 20 μM to 1 nM (20 μM, 6.7 μM, 2.2 μM, 0.74 μM, 0.25 μM, 82 nM, 27 nM, 9.2 nM, 3.1 nM and 1 nM; dilution series prepared before the assay at the level of the 100-fold conc. stock solutions by serial 1:3 dilutions in 100% DMSO) in duplicate values for each concentration. By using an in-house software, the IC50 values were calculated by a 4 parameter fit.
(In TR-FRET formats the signal depends on donor and acceptor labels being close together.)

The term pIC50 denotes −log10 of the IC50, conventionally taken in molar units. On to `CC1N(S(=O)(=O)c2ccc(F)cc2)c2ccc(C(=O)NCc3ncccc3Cl)cc2C12CCOCC2` (racemic) [Example 1, N-[(3-Chloropyridin-2-yl)methyl]-1-[(4-fluorophenyl)sulfonyl]-2-methyl-1,2,2′,3′,5′,6′-hexahydrospiro[indole-3,4′-pyran]-5-carboxamide], for which the pIC50 is 6.23.
For `O=C(NCc1ccccc1Cl)c1ccc2c(c1)C1(CCSCC1)C(C1CC1)N2S(=O)(=O)c1ccc(F)cc1` (racemic) [Example 12, N-(2-Chlorobenzyl)-2-cyclopropyl-1-[(4-fluorophenyl)sulfonyl]-1,2,2′,3′,5′,6′-hexahydrospiro[indole-3,4′-thiopyran]-5-carboxamide], the pIC50 is 6.73.
Next, `O=C(NCc1ncccc1Cl)c1ccc2c(c1)C1(CCS(=O)(=O)CC1)C(C1CC1)N2S(=O)(=O)c1ccc(F)cc1` (racemic) [Example 14, N-[(3-Chloropyridin-2-yl)methyl]-2-cyclopropyl-1-[(4-fluorophenyl)sulfonyl]-1,2,2′,3′,5′,6′-hexahydrospiro[indole-3,4′-thiopyran]-5-carboxamide 1′,1′-dioxide]: 6.61; `CC1N(S(=O)(=O)c2ccc(F)cc2)c2ccc(C(=O)NCc3ncccc3Cl)cc2C12CCOCC2` (single isomer, unassigned) [Example 1.1, N-[(3-Chloropyridin-2-yl)methyl]-1-[(4-fluorophenyl)sulfonyl]-2-methyl-1,2,2′,3′,5′,6′-hexahydrospiro[indole-3,4′-pyran]-5-carboxamide]: 6.84.
The same measure for `CC1N(S(=O)(=O)c2ccc(F)cc2)c2ccc(C(=O)NCc3ncccc3Cl)cc2C12CCOCC2` (single isomer, unassigned) [Example 1.2, N-[(3-Chloropyridin-2-yl)methyl]-1-[(4-fluorophenyl)sulfonyl]-2-methyl-1,2,2′,3′,5′,6′-hexahydrospiro[indole-3,4′-pyran]-5-carboxamide]: 4.71; for `CC1N(S(=O)(=O)c2ccc(F)cc2)c2ccc(C(=O)NCc3ccccc3Cl)cc2C12CCOCC2` (single isomer, unassigned) [Example 2.1, N-(2-chlorobenzyl)-1-[(4-fluorophenyl)sulfonyl]-2-methyl-1,2,2′,3′,5′,6′-hexahydrospiro[indole-3,4′-pyran]-5-carboxamide]: 5.03; for `CC1N(S(=O)(=O)c2ccc(F)cc2)c2ccc(C(=O)NCc3ccccc3Cl)cc2C12CCOCC2` (single isomer, unassigned) [Example 2.2, N-(2-chlorobenzyl)-1-[(4-fluorophenyl)sulfonyl]-2-methyl-1,2,2′,3′,5′,6′-hexahydrospiro[indole-3,4′-pyran]-5-carboxamide]: 7.08.
Turning to `CC1N(S(=O)(=O)c2ccc(F)cc2)c2ccc(C(=O)NCc3ncccc3C(F)(F)F)cc2C12CCOCC2` (single isomer, unassigned) [Example 3.1, 1-[(4-fluorophenyl)sulfonyl]-2-methyl-N-{[3-(trifluoromethyl)pyridin-2-yl]methyl}-1,2,2′,3′,5′,6′-hexahydrospiro[indole-3,4′-pyran]-5-carboxamide], the pIC50 is 6.65.
Consider `CC1N(S(=O)(=O)c2ccc(F)cc2)c2ccc(C(=O)NCc3ncccc3C(F)(F)F)cc2C12CCOCC2` (single isomer, unassigned) [Example 3.2, 1-[(4-fluorophenyl)sulfonyl]-2-methyl-N-{[3-(trifluoromethyl)pyridin-2-yl]methyl}-1,2,2′,3′,5′,6′-hexahydrospiro[indole-3,4′-pyran]-5-carboxamide], for which the pIC50 is below 4.70.
`O=C(NCc1ccccc1Cl)c1ccc2c(c1)C1(CCSCC1)C(C1CC1)N2S(=O)(=O)c1ccc(F)cc1` (single isomer, unassigned) [Example 12.1, N-(2-Chlorobenzyl)-2-cyclopropyl-1-[(4-fluorophenyl)sulfonyl]-1,2,2′,3′,5′,6′-hexahydrospiro[indole-3,4′-thiopyran]-5-carboxamide]: the pIC50 was 6.75.
The same measure for `O=C(NCc1ccccc1Cl)c1ccc2c(c1)C1(CCSCC1)C(C1CC1)N2S(=O)(=O)c1ccc(F)cc1` (single isomer, unassigned) [Example 12.2, N-(2-Chlorobenzyl)-2-cyclopropyl-1-[(4-fluorophenyl)sulfonyl]-1,2,2′,3′,5′,6′-hexahydrospiro[indole-3,4′-thiopyran]-5-carboxamide]: 5.43.
Next, `O=C(NCc1ccccc1Cl)c1ccc2c(c1)C1(CC[S+]([O-])CC1)C(C1CC1)N2S(=O)(=O)c1ccc(F)cc1` (single isomer, unassigned) [Example 13.2, N-(2-Chlorobenzyl)-2-cyclopropyl-1-[(4-fluorophenyl)sulfonyl]-1,2,2′,3′,5′,6′-hexahydrospiro[indole-3,4′-thiopyran]-5-carboxamide 1′-oxide]: 6.42.
Next, `O=C(NCc1ncccc1Cl)c1ccc2c(c1)C1(CCS(=O)(=O)CC1)C(C1CC1)N2S(=O)(=O)c1ccc(F)cc1` (single isomer, unassigned) [Example 14.2, N-[(3-Chloropyridin-2-yl)methyl]-2-cyclopropyl-1-[(4-fluorophenyl)sulfonyl]-1,2,2′,3′,5′,6′-hexahydrospiro[indole-3,4′-thiopyran]-5-carboxamide 1′,1′-dioxide]: 5.27; `O=C(NCc1ncccc1C(F)(F)F)c1ccc2c(c1)C1(CCS(=O)(=O)CC1)C(C1CC1)N2S(=O)(=O)c1ccc(F)cc1` (single isomer, unassigned) [Example 15.1, 2-cyclopropyl-1-[(4-fluorophenyl)sulfonyl]-N-{[3-(trifluoromethyl)pyridin-2-yl]methyl}-1,2,2′,3′,5′,6′-hexahydrospiro[indole-3,4′-thiopyran]-5-carboxamide 1′,1′-dioxide]: below 4.70; `O=C(NCc1ncccc1C(F)(F)F)c1ccc2c(c1)C1(CCS(=O)(=O)CC1)C(C1CC1)N2S(=O)(=O)c1ccc(F)cc1` (single isomer, unassigned) [Example 15.2, 2-cyclopropyl-1-[(4-fluorophenyl)sulfonyl]-N-{[3-(trifluoromethyl)pyridin-2-yl]methyl}-1,2,2′,3′,5′,6′-hexahydrospiro[indole-3,4′-thiopyran]-5-carboxamide 1′,1′-dioxide]: 7.16.
Turning to `O=C(NCc1ccc(F)cc1Cl)c1ccc2c(c1)C1(CCS(=O)(=O)CC1)C(C1CC1)N2S(=O)(=O)c1ccc(F)cc1` (single isomer, unassigned) [Example 16.1, N-(2-chloro-4-fluorobenzyl)-2-cyclopropyl-1-[(4-fluorophenyl)sulfonyl]-1,2,2′,3′,5′,6′-hexahydrospiro[indole-3,4′-thiopyran]-5-carboxamide 1′,1′-dioxide], the pIC50 was 7.21.
Next, `O=C(NCc1ccc(F)cc1Cl)c1ccc2c(c1)C1(CCS(=O)(=O)CC1)C(C1CC1)N2S(=O)(=O)c1ccc(F)cc1` (single isomer, unassigned) [Example 16.2, N-(2-chloro-4-fluorobenzyl)-2-cyclopropyl-1-[(4-fluorophenyl)sulfonyl]-1,2,2′,3′,5′,6′-hexahydrospiro[indole-3,4′-thiopyran]-5-carboxamide 1′,1′-dioxide]: 5.16.
